The text below walks through data of US20040049072A1, “RXR modulators with improved pharmacologic profile” (priority 1999, published 2004).

“Also recorded” adds a separate entry of the source.

In series [1] the target is T1, RXRα:PPARγ heterodimer (Homo sapiens, UniProt P19793).
T1 construct: expressed in transfected cells; host or cells: CV-1 cells
T1 sequence (P19793 1-462): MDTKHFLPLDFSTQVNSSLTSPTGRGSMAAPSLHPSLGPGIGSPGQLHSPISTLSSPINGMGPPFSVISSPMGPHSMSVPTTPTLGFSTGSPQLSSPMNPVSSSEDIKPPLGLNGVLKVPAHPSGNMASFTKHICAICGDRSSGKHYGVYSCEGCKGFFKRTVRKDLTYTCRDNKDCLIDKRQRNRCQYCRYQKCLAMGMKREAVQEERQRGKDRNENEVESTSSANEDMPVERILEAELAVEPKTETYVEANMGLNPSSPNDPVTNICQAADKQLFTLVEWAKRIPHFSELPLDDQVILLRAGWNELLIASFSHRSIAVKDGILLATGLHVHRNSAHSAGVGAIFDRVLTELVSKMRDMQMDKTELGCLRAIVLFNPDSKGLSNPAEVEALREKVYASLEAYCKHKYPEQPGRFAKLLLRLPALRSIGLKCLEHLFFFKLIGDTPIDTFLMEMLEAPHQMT
T1 sequence (P37231 1-505 partner): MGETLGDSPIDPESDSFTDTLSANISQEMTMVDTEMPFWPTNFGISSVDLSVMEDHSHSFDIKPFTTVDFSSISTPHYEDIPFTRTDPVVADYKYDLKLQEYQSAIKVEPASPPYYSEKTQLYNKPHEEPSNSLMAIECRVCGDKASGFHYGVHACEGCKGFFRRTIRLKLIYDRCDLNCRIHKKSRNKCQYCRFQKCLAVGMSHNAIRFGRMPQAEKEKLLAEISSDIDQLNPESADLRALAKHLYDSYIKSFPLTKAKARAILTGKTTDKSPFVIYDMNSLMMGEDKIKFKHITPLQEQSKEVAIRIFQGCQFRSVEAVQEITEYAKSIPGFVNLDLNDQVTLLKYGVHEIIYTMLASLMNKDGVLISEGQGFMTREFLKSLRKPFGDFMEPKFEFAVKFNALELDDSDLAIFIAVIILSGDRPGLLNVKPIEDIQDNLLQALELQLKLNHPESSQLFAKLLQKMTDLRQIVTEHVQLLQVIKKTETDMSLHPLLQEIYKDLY
In words: RXR:PPARγ heterodimer co-transfection assay in CV-1 cells. The series is classed as cell-based. Conditions: maximal response relative to response of BRL 49653. Here is the method:
(§1) For determination of agonist activity in the context of the RXR:RAR heterodimer or the RXR:PPARγ heterodimer, media containing compounds of the present invention in concentrations ranging from 10^−10 to 10^−5 M were added to the cells.
(§2) Compounds of the present invention were also tested for the ability to synergize with a PPARγ agonist in the context of an RXR heterodimer. […] Efficacy of the compounds of the present invention in the agonist and synergy assays was calculated as the maximum response obtained over the range of the dose response curve relative to the maximum response obtained by the reference agonist. Antagonist efficacy was determined as a function (%) of maximal inhibition.
To examine the effects of the compounds of the present invention on the transcriptional properties of the RXR:PPARγ, a heterodimer cotransfection assay as described above was employed.

Series [2] concerns db/db mouse. In words: db/db mouse study (rodent model of Type II diabetes). To be noted: for insulin sensitizing activity with thyroid axis suppression and triglyceride elevations: rodent models of Type II Diabetes.
Procedure: Mice (obtained from Jackson Laboratory), ZDF rats (obtained from Genetic Models Inc.) and fa/fa rats (obtained from either Charles River, or Harlan) were maintained on 12-hour light/dark cycle. […] Compounds were administered at the specified doses by oral gavage on the morning of each day of any experiment. Blood samples were obtained 3 hours after dosing from fed animals under anesthesia and collected into heparinized capillary tubes from the tail vein.
Series [3] addresses T2, RXRα:RAR heterodimer (Homo sapiens, UniProt P19793).
T2 construct: expressed in transfected cells; host or cells: CV-1 cells
T2 sequence (P19793 1-462): T1 sequence (P19793 1-462)
In words: RXR:RAR heterodimer co-transfection assay in CV-1 cells. In kind it is cell-based. As to the method: as §1, §2
However, when RAR is occupied, typical RXR agonists activate the heterodimer. […] To examine the effects of the compounds of the present invention on the transcriptional properties of the RXR:RAR heterodimer, a heterodimer cotransfection assay as described above was employed.

For `CN(CCOc1ccc(CC2SC(=O)NC2=O)cc1)c1ccccn1` (centres unmarked) [BRL 49653, reference compound], the “RXRα:PPARγ Heterodimer Cotransfection Assay Agonist Efficacy (%)” value in series [1] stood at 100%.
`CCCCCOc1c(\C(C)=C/C=C/C(C)=C/C(=O)O)cc(C(C)C)cc1C(C)C` [Compound L7]: in series [2], the “insulin sensitizing activity with thyroid axis suppression and triglyceride elevations” value was “maintain the desirable insulin sensitizing activity and eliminate or reduce both the suppression of the thyroid axis and triglyceride elevations; also recorded: maintain the desirable insulin sensitizing activity and minimize both the suppression of the thyroid axis and triglyceride elevations”.
The same measure, in the same setting: as for `CCCOc1c(C2=C(/C=C/C(C)=C/C(=O)O)CCC2)cc(C(C)C)cc1C(C)C` [Compound L8], the entry is “maintain the desirable insulin sensitizing activity and minimize both the suppression of the thyroid axis and triglyceride elevations”; as for `CCCCOc1c(C2=C(/C=C/C(C)=C/C(=O)O)CCC2)cc(C(C)C)cc1C(C)C` [Compound L9], “maintain the desirable insulin sensitizing activity and minimize both the suppression of the thyroid axis and triglyceride elevations”.
On to `C/C(=C/C=C/C(C)=C/C(=O)O)c1cc(C(C)(C)C)cc(C(C)(C)C)c1OCC(F)F` [Compound L13], for which, in series [2] (Mus musculus, po, 168 h, read-out: db/db mouse Glu. (D7)), the inhibition in vivo at 30 mg/kg came out at 54%. Besides, in series [2] (plasma triglycerides as % of control values, day 3, 30 mg/kg/day), the “db/db mouse Trigs. (D3)” value worked out at 109%. Also, the “insulin sensitizing activity with thyroid axis suppression and triglyceride elevations” value in series [2] is “maintain the desirable insulin sensitizing activity and minimize both the suppression of the thyroid axis and triglyceride elevations”.
Take `C/C(=C\c1ccc(C(=O)O)cc1)c1ccc2c(c1)C(C)(C)CCC2(C)C` [TTNPB, (E)-4-[2-(5,6,7,8-tetrahydro-5,5,8,8-tetramethyl-2-naphthalenyl)-1-propenyl]benzoic acid, reference compound]: the Emax in series [3] (CV-1, read-out: RXRα:RAR Heterodimer Cotransfection Assay Agonist Efficacy (%)) came to 115%. Also, in series [3] (compound alone), the “agonist activity on the RXR:RAR heterodimer” value is reported as “strongly transactivate”.
In the case of `CN(C)C(=N)N=C(N)N` [metformin, reference compound], the “efficacy over 3 subsequent weeks” value in series [2] (7 week old db/db mice, 300 mg/kg daily oral gavage) is listed as “decreases”. Also, the plasma glucose result in series [2] (7 week old db/db mice, 300 mg/kg daily oral gavage, maximum effect after first week) is listed as “lowers plasma glucose”.
